The values below come from patent US20240226042A9, “A PROPYL PROPANE THI[…] FOR USE AS ANTITUMORAL” (DMC RESEARCH CENTER, SL, priority 2021, published 2024).

Data set [1] has as its system T-84 (human colorectal adenocarcinoma line). To be noted: T-84 cells, 72 hours induction, SRB; means±SEM of six independent determinations. The source says: (§1) A-549 (Reference CCL-185 of the American Type Culture Collection): It is a tumor line of basal alveolar epithelium that comes from a pulmonary adenocarcinoma removed from a patient. These cells are squamous and can synthesize lecithin. T-84 (Reference CCL-248 of the American Type Culture Collection): It is a tumor line with epithelial morphology, isolated from a pulmonary metastasis of a colorectal carcinoma of a patient. These cells present receptors for a large group of hormones and neurotransmitters, and they produce carcinoembryonic antigen (CEA) and keratin, among other cellular products.
(§2) Adherent cells (MCF-7, A-549, T-84, HT-29 and Panc-1), were detached from the surface of the culture flasks, using 3-4 ml of trypsin 1×, and left to act for 5-10 minutes in an incubator at 37° C. with 5% CO2. Once the cells were detached, the trypsinization was stopped, adding to the medium flask the same amount of complete culture as trypsin used to detach cells. After resuspending the mixture of trypsin and detached cells several times, the content of the culture flask was transferred to a sterile tube to centrifugation it for 5 minutes at 1500-1600 rpm.
(§3) Adherent cells were incubated for 24 hours to get cells attached to the surface of the flask. […]

Data set [2] has as its system A-549 (human lung adenocarcinoma line). Particulars: A-549 cells, 72 hours induction, SRB; means±SEM of six independent determinations.
Excerpt: as §1, §2, §3

The test system of data set [3] is Jurkat (human tumor T lymphocytes line). The procedure:
(§4) Adherent cells were incubated for 24 hours to get cells attached to the surface of the flask. Then, the culture medium was replaced for a new medium, to which increasing concentrations of PTSO had been added, and the induction was conducted for 72 hours.

In data set [4] the test system is normal human peripheral blood mononuclear cells (PBMCs). To be noted: normal PBMCs from healthy volunteers, 72 hours induction, MTT; means±SEM of six independent determinations. The procedure:
as §4

Data set [5] concerns rats. Particulars: OECD guideline 408, 90-days oral subchronic toxicity study; cited from earlier work.
For data set [6], the system named is HT-29 (human colorectal carcinoma line). To be noted: HT-29 cells, 72 hours induction, SRB; means±SEM of six independent determinations. As for the experimental part:
as §2, §4

Data set [7] deals with Panc-1 (human pancreatic carcinoma line). Particulars: Panc-1 cells, 72 hours induction, SRB; means±SEM of six independent determinations. As for the experimental part:
as §2, §4

The test system of data set [8] is MCF-7 (human breast adenocarcinoma line). The procedure: as §2, §4

The IC50 is the midpoint of a concentration-inhibition curve.

In the case of `CCCSS(=O)(=O)CCC` [PTSO, propyl propane thiosulfonate], the half-maximal inhibitory concentration (IC50) in data set [1] is 37.3 µM; in data set [2], 38.6 µM; in data set [3] (Jurkat cells, 72 hours induction, MTT, means±SEM of six independent determinations), 15.7 µM; in data set [4], 248 µM; in data set [6], 50.8 µM; in data set [7] it was 33.8 µM. Further, the half-maximal inhibitory concentration (IC50) in data set [8] (MCF-7 cells, 72 hours induction, SRB, means±SEM of six independent determinations) amounted to 6.9 µM. The results for the “in vitro T.I (IC50 Normal Line/IC50 Tumor Line)” value in data set [3] (IC50 PBMCs / IC50 Jurkat tumor line) and in data set [8] (IC50 PBMCs / IC50 MCF-7 tumor line) were 15.8 and 36.0, respectively. For the same molecule, the “no-observed-adverse-effect level (NOAEL)” value in data set [5] is reported as 55 mg/kg/day.
